We go through four compounds from US20250360100A1, “ANTI-CANCER DERIVATIVES OF OVATODIOLIDE AND USE THEREOF” (ARJIL BIOTECH HOLDING COMPANY LIMITED, priority 2024, published 2025).

In data set [1] the test system is PC-3 (human prostate carcinoma). The data set is described as follows: MTT cytotoxicity assay in PC-3 cells. The data set is classed as cell-based. The following applies: 48 hours treatment, read-out: CC50 (50% cytotoxic concentration). The method, then:
(§1) In the invention, the cytotoxic effect was evaluated by the viability of cancer/tumor cells measured by the MTT assay, in several cancer cell lines, including the cell lines 293, A549, Colo205, SK-HEP1, PC-3, PANC-1, and AGS.
(§2) The compounds as tested were dissolved in DMSO (100 mg/mL), along with Doxorubicin (Dox), taken as a benchmark control, and the in vitro cytotoxicity in cancer cell lines were tested from 60 or 100 μg/mL with three-fold serial dilutions, and the 50% cytotoxic concentration (CC50) of test articles was determined by MTT assay.
(§3) Seven cancer cell lines were used in this example, including 293 (human embryonic kidney cells 293), A549 (human non-small cell lung cancer cells), Colo205 (human colon adenocarcinoma cells), SK-HEP1 (human hepatic cancer cells), PC-3 (human prostate carcinoma), PANC-1 (human pancreatic epithelioid carcinoma), and AGS (human gastric adenocarcinoma cells), cultured in the media and indicated as the table above. Briefly, cells seeded in 96-well plates were treated for 48 hours with the compounds as tested and the solvent (0.1% DMSO) as the vehicle control, respectively. Cell viability was determined by the MTT method, and the CC50 values were calculated using GraFit (Version 7, Erithacus Software Ltd., Horley, UK) and recorded.
For orientation: Formazan colour is commonly taken as a measure of viable cells.

The test system of data set [2] is A549 (human non-small cell lung cancer cells). In words: MTT cytotoxicity assay in A549 cells. The data set is classed as cell-based. The following applies: 48 hours treatment, read-out: CC50 (50% cytotoxic concentration). As for the experimental part: as §1, §2, §3
Data set [3] relates to SK-HEP1 (human hepatic cancer cells). In words: MTT cytotoxicity assay in SK-HEP1 cells. The format is cell-based. The following applies: 48 hours treatment, read-out: CC50 (50% cytotoxic concentration). The method, then:
as §1, §2, §3

Data set [4] deals with Colo205 (human colon adenocarcinoma cells). The data set is described as follows: MTT cytotoxicity assay in Colo205 cells. The format is cell-based. The following applies: COLO 205, 48 hours treatment, read-out: CC50 (50% cytotoxic concentration). As for the experimental part:
as §1, §2, §3

Data set [5] relates to PANC-1 (human pancreatic epithelioid carcinoma). In words: MTT cytotoxicity assay in PANC-1 cells. The settings on record: 48 hours treatment, read-out: CC50 (50% cytotoxic concentration). The data set is classed as cell-based. As for the experimental part: as §1, §2, §3
In data set [6] the test system is 293 (human embryonic kidney cells 293). The data set is described as follows: MTT cytotoxicity assay in 293 cells. The format is cell-based. The following applies: HEK293, 48 hours treatment, read-out: CC50 (50% cytotoxic concentration). The method, then:
as §1, §2, §3

Data set [7] concerns AGS (human gastric adenocarcinoma cells). In words: MTT cytotoxicity assay in AGS cells. The data set is classed as cell-based. The following applies: 48 hours treatment, read-out: CC50 (50% cytotoxic concentration). As for the experimental part: as §1, §2, §3
For data set [8], the system named is seven cancer cell lines (293, A549, Colo205, SK-HEP1, PC-3, PANC-1, AGS). The data set is described as follows: MTT cytotoxicity, overall statement for the seven cancer cell lines. The data set is classed as cell-based, human. The settings on record: all seven cell lines, 48 hours. As for the experimental part: as §1, §2, §3

The structures appear in SMILES notation. Converted amounts (≈) assume the structure as drawn.

Take `C=C1C(=O)O[C@H]2/C=C(\C)C[C@@H]3C=C(CC/C=C(\C)CC[C@H]12)C(=O)O3` [AR100-DS1, ovatodiolide]: the CC50 in data set [1] was 17.8 ± 0.2 µg/mL (≈ 54.2 µM); in data set [2], 29.6 ± 0.4 µg/mL (≈ 90.1 µM); in data set [3], 49.9 ± 5.2 µg/mL (≈ 152 µM); in data set [4] it was 41.7 ± 4.5 µg/mL (≈ 127 µM); in data set [5], 40.2 ± 3.9 µg/mL (≈ 122 µM); in data set [6], 25.7 ± 2.5 µg/mL (≈ 78.3 µM). Further, the CC50 in data set [7] worked out at 13 ± 5.1 µg/mL (≈ 39.6 µM).
Turning to `C=C1C(=O)O[C@H]2/C=C(\C)C[C@@H]3C=C(CCC4OC4(C)CC[C@H]12)C(=O)O3` (stereo partly drawn) [Ova-Oxy], the CC50 in data set [1] amounted to 12.3 ± 5.4 µg/mL (≈ 35.7 µM); in data set [2], 23 ± 4.7 µg/mL (≈ 66.8 µM); in data set [3], 45.2 ± 3.2 µg/mL (≈ 131 µM); in data set [4], 17 ± 0.2 µg/mL (≈ 49.4 µM); in data set [5], 32 ± 0.8 µg/mL (≈ 92.9 µM); in data set [6] it was 22.5 ± 0.5 µg/mL (≈ 65.3 µM). Further, in data set [7], the CC50 was 9.1 ± 0.9 µg/mL (≈ 26.4 µM). Moreover, in data set [8], the “cytotoxicity (result in words)” value is “exhibit cytotoxic effects in all of the seven cancer cell lines”.
`COc1cccc2c1C(=O)c1c(O)c3c(c(O)c1C2=O)C[C@@](O)(C(=O)CO)C[C@@H]3O[C@H]1C[C@H](N)[C@H](O)[C@H](C)O1` [Dox, Doxorubicin]: the CC50 is 10.3 ± 1.5 µg/mL (≈ 19 µM) in data set [1]; over 10 µg/mL in data set [2]; 9.8 ± 0.2 µg/mL (≈ 18 µM) in data set [3]; 8.7 ± 0.6 µg/mL (≈ 16 µM) in data set [4]; 10.7 ± 1.5 µg/mL (≈ 19.7 µM) in data set [5]; over 10 µg/mL in data set [6]. Further, in data set [7], the CC50 was found to be 0.3 ± 0.1 µg/mL (≈ 0.552 µM).
With `C/C1=C\CCC2=C[C@@H](C/C(C)=C/[C@@H]3OC(=O)C(CSCCO)[C@H]3CC1)OC2=O` (stereo partly drawn) [Ova-ST2], the CC50 in data set [1], in data set [2], in data set [3], in data set [4], in data set [5] and in data set [6] was over 100 µg/mL in each case. In data set [7], the CC50 is over 100 µg/mL. For the same compound, in data set [8], the “cytotoxicity (result in words)” value is reported as “did not exhibit the cytotoxicity”.
